Molecules are shown by their SMILES.

For 121 compounds, melting point results are on record in a melting point compilation (Tetko et al.).

Regarding `NC(=O)CCC1CCNCC1`, the melting point was in the range of 64 to 66 °C. For `CNS(=O)(=O)c1cc(Br)cnc1N` the value was 179 to 181 °C. The value for `N#Cc1cccc(OCC(=O)NC2CC2)c1` was 106 to 108 °C; that for `NNC(=O)Nc1ccc2c(c1)OCO2` was 164 to 166 °C. With `CCn1c(=O)[nH]c(=O)c2cc(C(=O)O)cnc21`, the melting point is 316 to 318 °C.

With `CCCC1(CCC)NC(=O)NC1=O`, the melting point lay in the range of 205 to 207 °C.

Compound `O=C(N/N=C/c1c(O)ccc2ccccc12)c1ccncc1` gave a melting point of 266 to 268 °C. For `O=S1(=O)CC(Cl)C(Cl)C1` (stereo unspecified) the value was 130 to 133 °C. Take `O=C(O)C(NC1CC1)c1cc(Br)cs1` (stereo unspecified): the melting point fell in the range of 155 to 157 °C.

Regarding `O=S(=O)(Nc1ccc(O)cc1)c1ccccc1`, the melting point lay in the range of 156 to 158 °C. Consider `Fc1ccc(OCC2CNCCO2)cc1F` (stereo unspecified), for which the melting point is 49 to 51 °C.

As for `COc1ccc(CNS(=O)(=O)CC#N)cc1OC`, the melting point was 126 to 128 °C. Take `COc1ccccc1NC1=NCCCS1`: the melting point lay in the range of 83 to 85 °C. The value for `O=C(O)c1c(F)ccc(OC(F)F)c1F` was 90 to 92 °C.

Regarding `O=S1(=O)CCNc2ccccc21`, the melting point is 139 to 141 °C. For `NNc1ccc(S(=O)(=O)N2CCCCC2)cn1` the value was 186 to 188 °C; for `Cc1cc(C)c([N+](=O)[O-])c(Cl)n1`, 59 to 61 °C. `N#CCC(=O)Nc1ccccn1` yielded a melting point of 160 to 162 °C. For `CC(Cl)C(=O)Nc1ccccc1Cl` (stereo unspecified) the value was 63 to 65 °C; for `COC(=O)c1nc(Cl)c2ccccc2c1O`, 162 to 164 °C; for `NCCc1ccc(OCC(N)=O)cc1`, 96 to 98 °C.

Consider `NC(=O)c1cccc(Oc2ccc(N)cn2)c1`, for which the melting point was 195 to 197 °C. For `O=C(O)c1cc(-c2ccccc2)nc2c1cnn2Cc1ccco1` the value was 242 to 244 °C. The value for `CC(C)(C)OC(=O)NC(C#N)c1ccc(F)cc1` (stereo unspecified) was 85 to 87 °C; that for `Cc1cc(C)n2nc(C(=O)O)nc2n1` was 178 to 180 °C. Compound `Cc1cccc(-c2nc(C)n[nH]2)c1` yielded a melting point of 140 to 142 °C. The value for `CCC(CC)n1nccc1C(=O)O` was 137 to 139 °C; that for `CCOc1ccc(C(C)(C)C(=O)O)cc1OCC` was 74 to 76 °C.

Turning to `CCCCCCOC(=O)c1ccc(N)cc1`, the melting point was in the range of 59 to 61 °C. Consider `O=C(Nc1ccccc1O)C1CC1`, for which the melting point was 136 to 138 °C. The value for `Cc1cc(NN)nc2ccccc12` was 146 to 148 °C; that for `O=C(O)c1cnc(-c2ccccn2)s1` was 199 to 201 °C. Turning to `COc1ccc(-n2c(S)nc3ccccc32)cc1`, the melting point lay within 213 to 215 °C. For `CC(C)C(=O)Nc1cccc(O)c1` the value was 179 to 181 °C; for `O=C(O)C(CO)NS(=O)(=O)c1ccc(Cl)cc1` (stereo unspecified), 206 to 208 °C; for `CCc1ncc(N)cn1`, 125 to 127 °C. The value for `Cc1noc(C)c1CNC(=O)CCl` was 79 to 81 °C; that for `OCc1ccnc(-c2ccccc2)n1` was 43 to 45 °C; that for `CCCn1c(=O)[nH]c(=O)c2cc(C(=O)O)cnc21` was 235 to 237 °C.

In the case of `Cc1sc(NC(=O)CCl)nc1-c1ccc(Cl)cc1`, the melting point lay in the range of 176 to 178 °C. `Cc1ccc(N)cc1S(C)(=O)=O`: the melting point was 72 to 74 °C. For `COc1c([N+](=O)[O-])ccc2[nH]ncc12` the value was 219 to 221 °C; for `Cn1c(SCC(=O)O)nnc1-c1cccs1`, 205 to 207 °C. For `NC(=O)Nc1cc(Cl)ccc1C(=O)O` the value was 185 to 187 °C; for `Cn1c(Cl)nnc1-c1ccc(Cl)cc1`, 179 to 181 °C; for `N#Cc1ccc(S(=O)(=O)N2CCC(O)CC2)cc1`, 161 to 163 °C. As to `NC(Cc1nc2ccccc2s1)=NO`, the melting point fell in the range of 159 to 161 °C. As for `COc1c(C(=O)O)sc(C)c1Br`, the melting point was 165 to 167 °C. For `N#CCc1cc(Br)c2c(c1)C=CCO2` the value was 79 to 81 °C; for `COc1ccc(OC)c(S(=O)(=O)N2CCNCC2)c1`, 103 to 105 °C. For `Nc1ccnn1Cc1ccncc1` the value was 219 to 221 °C; for `Cc1cc(C(=O)CCl)c(C)n1-c1cccc(C(F)(F)F)c1`, 96 to 98 °C; for `ClCc1ccc(-c2ccccc2)cc1`, 71 to 73 °C. In turn, `Nc1ccc(NC(=O)c2cccs2)cc1` had a melting point of 166 to 168 °C. The value for `O=C(O)c1ccccc1SCC(F)(F)F` was 169 to 171 °C. For `CC(C)NC(=O)Nc1ccc(C#N)cc1` the value was 193 to 195 °C.

In the case of `CN(C)c1ccc(C(=N)N)c(Cl)c1`, the melting point is 148 to 150 °C. The value for `Cc1oc(-c2ccco2)nc1CCl` was 58 to 60 °C. For `Cc1nnc2ccc(C(=O)O)cn12` the value was 307 to 309 °C; for `NS(=O)(=O)c1ccc(OCc2ccccc2Cl)cc1`, 179 to 181 °C.

Compound `COc1cc(C)c(C(C)=O)cc1OC` had a melting point of 73 to 75 °C. Compound `NC(=O)c1cc(Cl)ccn1` displayed a melting point of 157 to 159 °C. For the compound `CC(CC(=O)O)c1ccccc1C(F)(F)F` (stereo unspecified), the melting point was in the range of 76 to 78 °C. For `N#CC1(O)CCOCC1` the value was 43 to 45 °C.

With `N#C/C(=C/c1c[nH]nc1-c1cccc(Br)c1)C(=O)O`, the melting point lay within 258 to 260 °C. The value for `Cc1ccc(NC(N)=O)c(C)c1` was 215 to 217 °C; that for `COc1ccc(CNc2c([N+](=O)[O-])ncn2C)cc1OC` was 196 to 198 °C; that for `CCNC(=O)NC(=O)CN(C)Cc1ccccc1` was 62 to 64 °C. For `NC(=NO)c1ccc(-n2cnc3ccccc32)nc1` the value was 214 to 216 °C; for `O=Cc1c[nH]c2cc(F)ccc12`, 176 to 178 °C; for `O=C1COc2cc(F)ccc2N1`, 206 to 208 °C. For `COc1ccc(-n2c(N)nc3ccccc32)cc1` the value was 181 to 183 °C; for `COc1cc(CC#N)cc(Br)c1OC(F)F`, 200 to 203 °C.

For `COC(=O)c1oc2ccccc2c1C`, the melting point fell in the range of 70 to 72 °C. On to `Cn1c(=O)ccn(CC(=O)O)c1=O`, for which the melting point was in the range of 240 to 242 °C. The value for `COc1ccc([N+](=O)[O-])cc1NC(=O)CCCl` was 159 to 161 °C; that for `O=C(O)C=Cc1ccccc1OC(F)F` was 164 to 166 °C. In turn, `Cc1cccc(Cl)c1S(N)(=O)=O` had a melting point of 119 to 121 °C. The value for `Nc1cc(-c2ccc(Br)s2)n[nH]1` was 141 to 143 °C; that for `Cc1ccc(S(=O)(=O)NCCN)s1` was 94 to 96 °C.

`CC(CN)N1CCN(c2ccccc2)CC1` (stereo unspecified) showed a melting point of 91 to 93 °C. The value for `CCOc1ccc(S(N)(=O)=O)cc1` was 152 to 154 °C; that for `CCC(C)(C)NS(=O)(=O)c1ccc(Cl)nc1` was 86 to 88 °C.

For `Cc1ccc(-c2nn(-c3ccccc3)cc2/C=C(\C#N)C(=O)O)cc1`, the melting point lay in the range of 295 to 297 °C. The value for `O=C(O)c1ccc2c(c1)ncn2Cc1ccccc1` was 102 to 104 °C. The value for `O=C(NC1CC1)c1cc([N+](=O)[O-])ccc1Cl` was 180 to 182 °C; that for `Cc1ccc(-c2nn(-c3ccccc3)cc2C(=O)O)o1` was 160 to 163 °C; that for `O=C(O)CCCc1cc(Cl)sc1Cl` was 42 to 44 °C.

For `Cc1ccc(CNCc2ccc(C)n2C)n1C`, the melting point was 61 to 63 °C. In turn, `Cc1cc(-c2nccn2Cc2ccccc2)c(=O)[nH]n1` had a melting point of 215 to 217 °C. The compound `Nc1c(C(=O)O)cc(Br)c2c1C(=O)c1ccccc1C2=O` yielded a melting point of 313 to 315 °C. The compound `Cc1cc(C#N)ccc1S(=O)(=O)Cl` yielded a melting point of 64 to 66 °C.

`CCOC(=O)c1nn(-c2ccccc2)cc1/C=N/O` had a melting point of 111 to 113 °C. `O=C1CN(Cc2ccc(Br)cc2F)CCN1` had a melting point of 142 to 144 °C. Consider `O=C(O)CCNS(=O)(=O)c1c(Cl)cccc1Cl`, for which the melting point lay in the range of 119 to 121 °C. In turn, `COc1ccc(C(=O)O)cc1OCc1ccncc1` yielded a melting point of 201 to 203 °C.

In turn, `OCc1c(Cl)nc2sccn12` showed a melting point of 174 to 176 °C.

With `COc1cc(C=O)cc2c1OCCO2`, the melting point was in the range of 81 to 83 °C.

Compound `COC(=O)C(=O)CC(=O)c1ccc(Cl)cc1Cl` came in with a melting point of 118 to 120 °C. On to `Cc1cc(O)ccc1C(C)C`, for which the melting point fell in the range of 111 to 114 °C. Take `CC(C)(C)OC(=O)Nc1cnsn1`: the melting point lay in the range of 93 to 95 °C. For `O=C(NC(Cc1ccc(O)cc1)C(=O)O)c1cnccn1` (stereo unspecified) the value was 234 to 236 °C; for `N#CCNC(=O)CCl`, 88 to 90 °C; for `CN(C(=O)c1ccc(Cl)cc1)c1ccc(O)cc1`, 205 to 207 °C. Regarding `CNCC(O)COc1ccccc1C(F)(F)F` (stereo unspecified), the melting point was in the range of 124 to 127 °C. For `O=C(CCl)c1ccc(O)cc1O` the value was 108 to 110 °C; for `O=C(O)c1cc(S(=O)(=O)F)cs1`, 191 to 193 °C. With `COc1cc(C#N)ccc1OCCCC(=O)O`, the melting point was in the range of 146 to 148 °C. For `Cc1ccc(-c2cc(C(=O)O)[nH]n2)cc1` the value was 251 to 253 °C. In the case of `Brc1cccn2cnnc12`, the melting point lay in the range of 184 to 186 °C.

Take `O=C(O)c1c[nH]c(-c2cccc([N+](=O)[O-])c2)n1`: the melting point lay within 184 to 186 °C. For `CC=Cc1ccc(OCC(=O)O)c(OC)c1` the value was 117 to 119 °C; for `COCC(C)NC(=O)CC#N` (stereo unspecified), 40 to 44 °C; for `CCS(=O)(=O)c1ccc2oc(N)nc2c1`, 209 to 211 °C. For `O=C(O)Cc1coc(-c2ccccc2)n1` the value was 148 to 150 °C. The value for `Nc1ccc(Cl)c(S(=O)(=O)N2CCCC2)c1` was 116 to 118 °C; that for `Cc1occc1C(=O)Nc1cc(N)ccc1F` was 130 to 132 °C. In the case of `CCC(=O)Nc1cc2ccccc2cc1C(=O)O`, the melting point lay within 234 to 236 °C.

Compound `ClCc1ncc(-c2ccccc2Br)o1` returned a melting point of 85 to 87 °C. `COc1cccc(-c2cc(N)n(CCO)n2)c1` had a melting point of 148 to 150 °C. The value for `NC(=O)c1cnc(Cl)cn1` was 166 to 168 °C.

As usually defined, the melting point is the temperature of the solid-liquid transition.
